Source: publication PMC4457528, “Identification of Novel Small Molecule Inhibitors of Oncogenic RET Kinase” (PLoS ONE, 2015)
Read-outs that look alike come from different tables or passages of the source.

Key:
Assay in all cases: KinomeScan kinase panel, single concentration 10 µM
Assay type in all cases: binding
[1] = biological target: T1, KinomeScan kinase panel (Homo sapiens, UniProt O94804); settings: LOK, 10 µM
T1 construct: purchased DiscoveRx (KinomeScan)

[2] = biological target: T2, KinomeScan kinase panel (Homo sapiens, UniProt P06213); settings: INSR, 10 µM; read-out: score (%)
T2 construct: purchased DiscoveRx (KinomeScan)
T2 sequence (P06213 28-1382): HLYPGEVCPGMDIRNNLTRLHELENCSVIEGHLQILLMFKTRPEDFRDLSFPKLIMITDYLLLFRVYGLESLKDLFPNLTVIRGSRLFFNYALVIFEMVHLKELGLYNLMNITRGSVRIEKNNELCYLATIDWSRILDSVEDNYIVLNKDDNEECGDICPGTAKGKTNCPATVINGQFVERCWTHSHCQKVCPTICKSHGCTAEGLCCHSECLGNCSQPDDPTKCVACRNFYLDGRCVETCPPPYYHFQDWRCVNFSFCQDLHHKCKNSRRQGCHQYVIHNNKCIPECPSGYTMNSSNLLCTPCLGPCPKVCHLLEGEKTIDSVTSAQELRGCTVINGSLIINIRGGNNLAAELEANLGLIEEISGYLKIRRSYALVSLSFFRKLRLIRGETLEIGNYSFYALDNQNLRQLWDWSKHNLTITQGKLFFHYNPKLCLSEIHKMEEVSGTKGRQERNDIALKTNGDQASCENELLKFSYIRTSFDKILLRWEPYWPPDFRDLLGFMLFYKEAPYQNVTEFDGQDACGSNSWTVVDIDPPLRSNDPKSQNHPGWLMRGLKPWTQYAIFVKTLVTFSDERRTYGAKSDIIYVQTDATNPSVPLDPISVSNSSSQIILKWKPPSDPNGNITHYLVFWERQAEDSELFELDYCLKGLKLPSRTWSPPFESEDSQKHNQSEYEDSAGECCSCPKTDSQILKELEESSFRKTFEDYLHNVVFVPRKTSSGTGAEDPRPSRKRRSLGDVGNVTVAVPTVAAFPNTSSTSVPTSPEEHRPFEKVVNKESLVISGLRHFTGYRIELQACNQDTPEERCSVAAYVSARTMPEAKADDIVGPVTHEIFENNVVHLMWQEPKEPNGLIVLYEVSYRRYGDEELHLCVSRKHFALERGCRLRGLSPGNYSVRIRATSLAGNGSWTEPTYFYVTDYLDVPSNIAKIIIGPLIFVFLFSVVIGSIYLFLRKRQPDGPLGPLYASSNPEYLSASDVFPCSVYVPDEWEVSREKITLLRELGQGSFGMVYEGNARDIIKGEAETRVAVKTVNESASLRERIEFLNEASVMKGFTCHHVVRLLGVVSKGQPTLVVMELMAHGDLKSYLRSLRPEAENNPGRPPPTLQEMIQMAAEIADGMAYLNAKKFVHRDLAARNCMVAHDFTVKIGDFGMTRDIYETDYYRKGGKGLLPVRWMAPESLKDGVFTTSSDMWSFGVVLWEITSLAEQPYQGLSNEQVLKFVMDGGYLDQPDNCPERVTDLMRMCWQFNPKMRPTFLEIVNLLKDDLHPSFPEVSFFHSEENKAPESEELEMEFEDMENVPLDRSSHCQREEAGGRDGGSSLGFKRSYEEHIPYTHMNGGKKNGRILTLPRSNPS

[3] = biological target: T3, KinomeScan kinase panel (Homo sapiens, UniProt P29320); settings: EPHA3, 10 µM; read-out: score (%)
T3 construct: purchased DiscoveRx (KinomeScan)
T3 sequence (P29320 21-983): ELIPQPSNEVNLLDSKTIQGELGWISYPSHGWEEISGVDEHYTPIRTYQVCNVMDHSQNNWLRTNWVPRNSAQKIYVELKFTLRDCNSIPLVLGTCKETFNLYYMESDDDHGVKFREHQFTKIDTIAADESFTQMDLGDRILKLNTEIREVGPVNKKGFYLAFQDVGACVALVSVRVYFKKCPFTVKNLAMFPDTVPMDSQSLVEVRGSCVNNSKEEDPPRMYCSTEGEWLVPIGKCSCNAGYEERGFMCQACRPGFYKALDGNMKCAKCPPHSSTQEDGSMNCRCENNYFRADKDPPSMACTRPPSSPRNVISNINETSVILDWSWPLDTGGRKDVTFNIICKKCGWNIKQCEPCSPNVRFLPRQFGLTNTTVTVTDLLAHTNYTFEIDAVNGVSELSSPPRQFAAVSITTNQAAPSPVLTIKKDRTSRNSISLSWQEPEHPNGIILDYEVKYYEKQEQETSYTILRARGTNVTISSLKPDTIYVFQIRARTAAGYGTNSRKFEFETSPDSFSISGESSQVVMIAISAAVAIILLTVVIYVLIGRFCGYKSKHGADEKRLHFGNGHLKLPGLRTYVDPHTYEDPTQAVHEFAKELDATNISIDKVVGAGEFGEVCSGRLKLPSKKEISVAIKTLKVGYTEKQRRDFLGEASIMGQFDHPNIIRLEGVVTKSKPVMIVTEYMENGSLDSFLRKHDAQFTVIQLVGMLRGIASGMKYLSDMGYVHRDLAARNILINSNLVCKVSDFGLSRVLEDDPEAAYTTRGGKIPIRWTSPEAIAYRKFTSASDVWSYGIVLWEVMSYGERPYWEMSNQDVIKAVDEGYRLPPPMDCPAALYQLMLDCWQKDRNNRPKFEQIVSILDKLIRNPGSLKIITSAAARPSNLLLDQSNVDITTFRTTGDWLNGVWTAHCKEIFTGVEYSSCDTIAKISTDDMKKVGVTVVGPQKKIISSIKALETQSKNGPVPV

[4] = biological target: T4, KinomeScan kinase panel (Homo sapiens, UniProt P53355); settings: DAPK1, 10 µM; read-out: score (%)
T4 construct: purchased DiscoveRx (KinomeScan)
T4 sequence (P53355 whole entry): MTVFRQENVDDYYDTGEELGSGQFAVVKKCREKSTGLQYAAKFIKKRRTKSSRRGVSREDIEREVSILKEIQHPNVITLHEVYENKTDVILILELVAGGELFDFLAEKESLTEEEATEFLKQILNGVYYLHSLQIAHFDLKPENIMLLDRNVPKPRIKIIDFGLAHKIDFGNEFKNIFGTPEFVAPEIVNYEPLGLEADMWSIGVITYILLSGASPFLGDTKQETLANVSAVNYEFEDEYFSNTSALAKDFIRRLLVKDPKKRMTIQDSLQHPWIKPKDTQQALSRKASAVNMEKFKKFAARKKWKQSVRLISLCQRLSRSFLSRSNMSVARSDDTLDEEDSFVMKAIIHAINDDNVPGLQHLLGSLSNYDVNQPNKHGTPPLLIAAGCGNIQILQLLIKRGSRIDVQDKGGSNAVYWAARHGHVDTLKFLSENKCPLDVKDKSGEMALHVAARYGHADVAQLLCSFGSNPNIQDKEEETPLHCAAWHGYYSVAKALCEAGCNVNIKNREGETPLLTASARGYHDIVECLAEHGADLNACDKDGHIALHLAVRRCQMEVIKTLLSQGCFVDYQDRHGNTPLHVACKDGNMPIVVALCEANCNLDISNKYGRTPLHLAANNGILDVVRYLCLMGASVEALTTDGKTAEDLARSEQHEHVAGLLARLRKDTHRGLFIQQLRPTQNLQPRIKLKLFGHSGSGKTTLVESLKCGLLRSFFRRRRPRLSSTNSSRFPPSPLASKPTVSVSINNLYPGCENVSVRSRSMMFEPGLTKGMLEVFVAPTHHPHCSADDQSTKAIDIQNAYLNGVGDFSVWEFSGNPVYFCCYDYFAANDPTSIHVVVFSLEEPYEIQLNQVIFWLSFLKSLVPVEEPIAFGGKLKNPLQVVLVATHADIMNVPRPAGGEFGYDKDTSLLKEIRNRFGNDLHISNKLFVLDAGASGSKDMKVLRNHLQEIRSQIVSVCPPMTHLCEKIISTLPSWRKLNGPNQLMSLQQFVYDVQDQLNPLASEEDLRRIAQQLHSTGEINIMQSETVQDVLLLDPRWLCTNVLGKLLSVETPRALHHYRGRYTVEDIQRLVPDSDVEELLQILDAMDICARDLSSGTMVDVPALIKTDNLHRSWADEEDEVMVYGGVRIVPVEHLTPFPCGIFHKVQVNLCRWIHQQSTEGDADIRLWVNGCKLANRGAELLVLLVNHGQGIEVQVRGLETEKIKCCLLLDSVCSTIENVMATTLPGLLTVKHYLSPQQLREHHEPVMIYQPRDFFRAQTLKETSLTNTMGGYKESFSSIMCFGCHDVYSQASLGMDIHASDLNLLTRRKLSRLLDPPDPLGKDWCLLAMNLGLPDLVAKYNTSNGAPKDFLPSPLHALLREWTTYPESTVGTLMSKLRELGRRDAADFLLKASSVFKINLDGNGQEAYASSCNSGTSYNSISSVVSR

[5] = biological target: T5, KinomeScan kinase panel (Homo sapiens, UniProt P78356); settings: PIP5K2B, 10 µM; read-out: score (%)
T5 construct: purchased DiscoveRx (KinomeScan)
T5 sequence (P78356 1-416): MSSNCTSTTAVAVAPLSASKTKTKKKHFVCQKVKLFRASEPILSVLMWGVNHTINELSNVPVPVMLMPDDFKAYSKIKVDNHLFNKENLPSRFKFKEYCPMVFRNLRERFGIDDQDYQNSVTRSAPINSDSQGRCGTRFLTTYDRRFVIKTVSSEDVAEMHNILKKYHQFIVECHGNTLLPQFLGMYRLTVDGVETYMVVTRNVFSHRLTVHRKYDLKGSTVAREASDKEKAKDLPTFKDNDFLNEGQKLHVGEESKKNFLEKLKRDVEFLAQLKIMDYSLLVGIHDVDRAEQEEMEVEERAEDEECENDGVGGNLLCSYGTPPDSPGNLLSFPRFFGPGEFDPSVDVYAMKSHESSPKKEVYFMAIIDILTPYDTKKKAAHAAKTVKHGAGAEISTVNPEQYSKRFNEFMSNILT

[6] = biological target: T6, KinomeScan kinase panel (Homo sapiens, UniProt Q07912); settings: read-out: score (%)
T6 construct: purchased DiscoveRx (KinomeScan)

[7] = biological target: T7, KinomeScan kinase panel (Homo sapiens, UniProt Q15375); settings: EPHA7, 10 µM; read-out: score (%)
T7 construct: purchased DiscoveRx (KinomeScan)

[8] = biological target: T8, KinomeScan kinase panel (Homo sapiens, UniProt Q6P3R8); settings: NEK5, 10 µM; read-out: score (%)
T8 construct: purchased DiscoveRx (KinomeScan)
T8 sequence (Q6P3R8 1-708): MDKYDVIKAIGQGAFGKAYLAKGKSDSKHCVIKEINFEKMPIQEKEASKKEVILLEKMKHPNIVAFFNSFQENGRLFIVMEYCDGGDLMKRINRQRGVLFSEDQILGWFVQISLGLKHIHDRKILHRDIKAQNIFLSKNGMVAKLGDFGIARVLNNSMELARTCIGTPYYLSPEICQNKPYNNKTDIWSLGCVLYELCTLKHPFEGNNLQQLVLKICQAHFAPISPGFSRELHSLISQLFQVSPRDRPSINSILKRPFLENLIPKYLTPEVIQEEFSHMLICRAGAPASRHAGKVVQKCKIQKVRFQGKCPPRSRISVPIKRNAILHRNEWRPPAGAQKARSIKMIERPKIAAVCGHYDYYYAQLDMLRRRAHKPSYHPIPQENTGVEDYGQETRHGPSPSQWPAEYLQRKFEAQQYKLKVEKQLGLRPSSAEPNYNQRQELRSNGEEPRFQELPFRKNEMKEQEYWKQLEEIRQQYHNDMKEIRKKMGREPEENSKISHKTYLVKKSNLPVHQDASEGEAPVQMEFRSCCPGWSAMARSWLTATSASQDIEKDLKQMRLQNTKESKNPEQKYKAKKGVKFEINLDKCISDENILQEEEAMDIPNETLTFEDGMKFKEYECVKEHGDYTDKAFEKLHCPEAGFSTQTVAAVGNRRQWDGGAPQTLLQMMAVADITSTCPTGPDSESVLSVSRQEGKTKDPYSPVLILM

[9] = biological target: T9, KinomeScan kinase panel (Homo sapiens, UniProt Q86V86); settings: PIM3, 10 µM; read-out: score (%)
T9 construct: purchased DiscoveRx (KinomeScan)

[10] = biological target: T10, KinomeScan kinase panel (Homo sapiens, UniProt Q96GD4); settings: AURKB, 10 µM; read-out: score (%)
T10 construct: purchased DiscoveRx (KinomeScan)
T10 sequence (Q96GD4 whole entry): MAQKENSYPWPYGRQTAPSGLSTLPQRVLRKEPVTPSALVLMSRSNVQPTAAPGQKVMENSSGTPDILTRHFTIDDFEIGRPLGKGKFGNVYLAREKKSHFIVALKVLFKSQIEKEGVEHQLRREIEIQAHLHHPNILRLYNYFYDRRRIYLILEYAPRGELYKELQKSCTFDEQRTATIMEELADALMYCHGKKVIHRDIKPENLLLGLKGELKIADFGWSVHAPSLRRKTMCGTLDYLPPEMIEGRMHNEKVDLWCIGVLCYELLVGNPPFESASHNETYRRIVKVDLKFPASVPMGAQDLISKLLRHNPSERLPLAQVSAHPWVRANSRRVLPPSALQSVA

T1 sequence (O94804 whole entry): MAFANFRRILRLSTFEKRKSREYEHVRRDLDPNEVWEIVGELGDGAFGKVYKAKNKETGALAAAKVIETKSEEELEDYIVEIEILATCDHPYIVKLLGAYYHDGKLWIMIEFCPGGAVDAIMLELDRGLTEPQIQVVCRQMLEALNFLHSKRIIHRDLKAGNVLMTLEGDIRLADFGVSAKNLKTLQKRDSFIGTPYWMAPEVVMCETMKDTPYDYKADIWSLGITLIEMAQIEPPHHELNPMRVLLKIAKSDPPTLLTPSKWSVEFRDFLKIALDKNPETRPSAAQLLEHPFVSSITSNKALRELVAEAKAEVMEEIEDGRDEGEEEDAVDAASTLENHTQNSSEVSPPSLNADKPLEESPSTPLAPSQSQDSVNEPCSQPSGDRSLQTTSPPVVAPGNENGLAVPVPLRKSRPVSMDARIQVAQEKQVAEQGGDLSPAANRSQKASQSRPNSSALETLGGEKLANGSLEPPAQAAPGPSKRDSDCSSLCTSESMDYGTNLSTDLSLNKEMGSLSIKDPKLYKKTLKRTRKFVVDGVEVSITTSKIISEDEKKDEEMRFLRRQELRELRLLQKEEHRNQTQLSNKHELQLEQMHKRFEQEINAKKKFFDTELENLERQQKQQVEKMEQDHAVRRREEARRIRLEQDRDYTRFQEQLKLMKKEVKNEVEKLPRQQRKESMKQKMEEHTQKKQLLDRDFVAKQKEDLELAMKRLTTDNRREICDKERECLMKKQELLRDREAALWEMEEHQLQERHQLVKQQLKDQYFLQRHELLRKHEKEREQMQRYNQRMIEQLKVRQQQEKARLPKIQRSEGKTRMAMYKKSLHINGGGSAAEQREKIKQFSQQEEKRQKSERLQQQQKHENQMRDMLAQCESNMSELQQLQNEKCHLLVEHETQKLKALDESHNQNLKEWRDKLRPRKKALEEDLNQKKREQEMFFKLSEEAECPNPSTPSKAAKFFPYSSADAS

SMILES | score (%) [1] | remaining binding at 10 µM [2] | remaining binding at 10 µM [3] | remaining binding at 10 µM [4] | remaining binding at 10 µM [5] | remaining binding at 10 µM ([6]; kinase TNK2, 10 µM) | remaining binding at 10 µM [7] | remaining binding at 10 µM [8] | remaining binding at 10 µM [9] | remaining binding at 10 µM [10] | remaining binding at 10 µM ([6]; TNK2, 10 µM)
CCN1CCN(Cc2ccc(NC(=O)c3ccc(C)c(NC(=O)c4cncc(-c5cccs5)c4)c3)cc2C(F)(F)F)CC1 [ALW-II-41-27] | 0.05% | 12% | 7.6% | > 30% | > 30% | 2.1% | > 30% | > 30% | > 30% | > 30% | 
CCN1CCN(Cc2ccc(NC(=O)c3ccc(C)c(/C=C/c4cnc5[nH]ccc5c4Cl)c3)cc2C(F)(F)F)CC1 [HG-6-63-01, (E)-3-(2-(4-chloro-1H-pyrrolo[2,3-b]pyridin-5-yl)vinyl)-N-(4-((4-ethylpiperazin-1-yl)methyl)-3-(trifluoromethyl)phenyl)-4-methylbenzamide] | 0% | > 30% | 11% | > 30% | 5% |  | > 30% | 7% | > 30% | 6.6% | 0.5%
CCN1CCN(Cc2ccc(NC(=O)c3ccc(C)c(C#Cc4cccnc4)c3)cc2C(F)(F)F)CC1 [XMD15-44] | 0% | > 30% | 0.85% | > 30% | 58% | 11% | 0.55% | 4.8% | 100% | 24% | 
